From ChEMBL document CHEMBL5465560, “Selectivity Literature for EUbOPEN Chemogenomic Library” (2024)

Assays:
[1] = target: T1, Calcium/calmodulin-dependent protein kinase type IV (Homo sapiens) (UniProt Q16566); experiment: Selectivity interaction (KinomeScan (DiscoverX)) EUB0000092b CAMK4; details: at 10 µM
T1 sequence (whole entry): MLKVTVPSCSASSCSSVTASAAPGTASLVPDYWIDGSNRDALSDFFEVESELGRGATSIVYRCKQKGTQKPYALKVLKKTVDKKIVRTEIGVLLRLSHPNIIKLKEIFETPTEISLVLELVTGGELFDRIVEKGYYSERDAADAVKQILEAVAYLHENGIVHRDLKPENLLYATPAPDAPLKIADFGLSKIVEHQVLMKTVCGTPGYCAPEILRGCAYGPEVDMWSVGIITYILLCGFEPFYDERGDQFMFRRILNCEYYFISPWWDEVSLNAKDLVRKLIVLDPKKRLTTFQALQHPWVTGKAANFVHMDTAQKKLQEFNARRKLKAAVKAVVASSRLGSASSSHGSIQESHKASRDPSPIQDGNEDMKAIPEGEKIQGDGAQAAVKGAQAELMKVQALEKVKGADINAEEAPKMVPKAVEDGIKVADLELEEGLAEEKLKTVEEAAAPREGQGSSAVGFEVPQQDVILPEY

[2] = target: Tyrosine-protein kinase Lck (Homo sapiens, UniProt P06239); experiment: Selectivity interaction (ProQinase) EUB0000171b LCK
Sequence of Tyrosine-protein kinase Lck (P06239 2-509 limits assumed): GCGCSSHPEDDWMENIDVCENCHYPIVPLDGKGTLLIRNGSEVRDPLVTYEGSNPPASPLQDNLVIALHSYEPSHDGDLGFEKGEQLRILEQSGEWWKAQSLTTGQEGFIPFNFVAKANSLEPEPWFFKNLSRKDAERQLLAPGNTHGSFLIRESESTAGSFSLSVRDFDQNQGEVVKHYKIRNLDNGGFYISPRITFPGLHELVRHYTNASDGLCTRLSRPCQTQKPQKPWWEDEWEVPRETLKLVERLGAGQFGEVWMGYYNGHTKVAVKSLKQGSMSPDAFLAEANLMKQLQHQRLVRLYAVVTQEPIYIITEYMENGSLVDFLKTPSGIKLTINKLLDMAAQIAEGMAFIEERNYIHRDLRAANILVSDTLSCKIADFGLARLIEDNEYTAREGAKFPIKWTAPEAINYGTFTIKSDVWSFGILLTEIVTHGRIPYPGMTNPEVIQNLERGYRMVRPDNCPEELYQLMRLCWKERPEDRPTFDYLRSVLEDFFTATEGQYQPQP

[3] = target: Vascular endothelial growth factor receptor 1 (Homo sapiens) (UniProt P17948); experiment: Selectivity interaction (ProQinase) EUB0000171b FLT1
Sequence of Vascular endothelial growth factor receptor 1 (Homo sapiens) (P17948 whole entry): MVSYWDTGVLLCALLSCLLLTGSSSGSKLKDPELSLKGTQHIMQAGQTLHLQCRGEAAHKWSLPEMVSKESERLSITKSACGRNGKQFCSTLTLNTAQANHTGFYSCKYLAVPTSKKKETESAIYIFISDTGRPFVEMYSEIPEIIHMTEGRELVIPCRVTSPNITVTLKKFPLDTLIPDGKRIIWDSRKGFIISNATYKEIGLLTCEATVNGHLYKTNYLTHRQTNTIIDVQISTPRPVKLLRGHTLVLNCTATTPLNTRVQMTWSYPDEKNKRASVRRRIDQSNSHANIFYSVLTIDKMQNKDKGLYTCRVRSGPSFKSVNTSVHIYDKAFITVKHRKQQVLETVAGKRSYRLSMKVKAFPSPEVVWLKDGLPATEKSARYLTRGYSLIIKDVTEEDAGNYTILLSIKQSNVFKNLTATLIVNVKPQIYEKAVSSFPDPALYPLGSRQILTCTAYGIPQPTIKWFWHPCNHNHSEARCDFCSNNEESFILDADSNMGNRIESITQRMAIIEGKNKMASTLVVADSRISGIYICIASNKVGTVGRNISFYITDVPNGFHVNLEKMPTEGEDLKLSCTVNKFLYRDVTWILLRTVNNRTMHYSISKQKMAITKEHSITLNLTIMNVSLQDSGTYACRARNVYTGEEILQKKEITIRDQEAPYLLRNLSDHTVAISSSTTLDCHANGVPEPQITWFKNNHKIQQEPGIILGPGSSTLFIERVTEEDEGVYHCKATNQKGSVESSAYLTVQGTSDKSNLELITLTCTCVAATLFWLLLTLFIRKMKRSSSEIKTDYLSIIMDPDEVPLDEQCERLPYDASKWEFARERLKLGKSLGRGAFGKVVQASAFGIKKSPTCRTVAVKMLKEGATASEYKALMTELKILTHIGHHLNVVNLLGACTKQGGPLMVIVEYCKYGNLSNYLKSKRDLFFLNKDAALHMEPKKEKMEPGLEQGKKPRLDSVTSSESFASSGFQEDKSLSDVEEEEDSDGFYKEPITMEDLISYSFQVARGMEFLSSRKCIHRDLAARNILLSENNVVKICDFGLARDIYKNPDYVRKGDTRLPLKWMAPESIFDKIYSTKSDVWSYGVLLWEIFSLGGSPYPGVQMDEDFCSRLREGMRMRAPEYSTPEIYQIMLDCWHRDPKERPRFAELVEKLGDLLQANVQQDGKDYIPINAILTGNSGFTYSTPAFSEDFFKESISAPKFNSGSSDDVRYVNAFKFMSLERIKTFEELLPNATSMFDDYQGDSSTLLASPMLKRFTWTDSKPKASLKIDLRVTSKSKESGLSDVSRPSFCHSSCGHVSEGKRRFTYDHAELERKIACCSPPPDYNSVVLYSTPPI

[4] = target: Serine/threonine-protein kinase tousled-like 2 (Homo sapiens) (UniProt Q86UE8); experiment: Selectivity interaction (KinomeScan (DiscoverX)) EUB0001079a TLK2; details: at 1 µM
Sequence of Serine/threonine-protein kinase tousled-like 2 (Homo sapiens) (Q86UE8 whole entry, looked up, the tested form may be a part): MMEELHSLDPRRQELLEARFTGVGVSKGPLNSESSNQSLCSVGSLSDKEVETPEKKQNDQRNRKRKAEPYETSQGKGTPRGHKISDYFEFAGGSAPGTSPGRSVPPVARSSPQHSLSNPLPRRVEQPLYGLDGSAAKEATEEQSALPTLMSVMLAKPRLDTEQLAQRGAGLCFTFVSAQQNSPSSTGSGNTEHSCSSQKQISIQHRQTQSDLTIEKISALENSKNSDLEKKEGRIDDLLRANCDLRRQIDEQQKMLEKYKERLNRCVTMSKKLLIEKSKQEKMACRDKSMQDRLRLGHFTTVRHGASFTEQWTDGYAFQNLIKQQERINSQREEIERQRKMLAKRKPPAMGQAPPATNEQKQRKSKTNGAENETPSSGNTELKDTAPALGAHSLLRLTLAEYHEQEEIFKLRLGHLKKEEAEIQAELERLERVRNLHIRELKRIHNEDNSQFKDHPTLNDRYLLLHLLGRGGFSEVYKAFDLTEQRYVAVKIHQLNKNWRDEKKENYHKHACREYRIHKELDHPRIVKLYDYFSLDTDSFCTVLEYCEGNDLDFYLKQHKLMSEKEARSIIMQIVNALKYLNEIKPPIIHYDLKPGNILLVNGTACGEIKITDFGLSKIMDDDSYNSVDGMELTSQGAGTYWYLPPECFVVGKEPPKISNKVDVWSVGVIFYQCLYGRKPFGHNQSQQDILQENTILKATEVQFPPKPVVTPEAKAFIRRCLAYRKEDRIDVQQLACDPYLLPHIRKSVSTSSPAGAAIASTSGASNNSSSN

[5] = target: Bromodomain adjacent to zinc finger domain protein 2B (Homo sapiens) (UniProt Q9UIF8); experiment: Selectivity interaction (Human bromodomain panel (DSF assay)) EUB0000233b BAZ2B
Sequence of Bromodomain adjacent to zinc finger domain protein 2B (Homo sapiens) (Q9UIF8 whole entry, the tested form may be a part): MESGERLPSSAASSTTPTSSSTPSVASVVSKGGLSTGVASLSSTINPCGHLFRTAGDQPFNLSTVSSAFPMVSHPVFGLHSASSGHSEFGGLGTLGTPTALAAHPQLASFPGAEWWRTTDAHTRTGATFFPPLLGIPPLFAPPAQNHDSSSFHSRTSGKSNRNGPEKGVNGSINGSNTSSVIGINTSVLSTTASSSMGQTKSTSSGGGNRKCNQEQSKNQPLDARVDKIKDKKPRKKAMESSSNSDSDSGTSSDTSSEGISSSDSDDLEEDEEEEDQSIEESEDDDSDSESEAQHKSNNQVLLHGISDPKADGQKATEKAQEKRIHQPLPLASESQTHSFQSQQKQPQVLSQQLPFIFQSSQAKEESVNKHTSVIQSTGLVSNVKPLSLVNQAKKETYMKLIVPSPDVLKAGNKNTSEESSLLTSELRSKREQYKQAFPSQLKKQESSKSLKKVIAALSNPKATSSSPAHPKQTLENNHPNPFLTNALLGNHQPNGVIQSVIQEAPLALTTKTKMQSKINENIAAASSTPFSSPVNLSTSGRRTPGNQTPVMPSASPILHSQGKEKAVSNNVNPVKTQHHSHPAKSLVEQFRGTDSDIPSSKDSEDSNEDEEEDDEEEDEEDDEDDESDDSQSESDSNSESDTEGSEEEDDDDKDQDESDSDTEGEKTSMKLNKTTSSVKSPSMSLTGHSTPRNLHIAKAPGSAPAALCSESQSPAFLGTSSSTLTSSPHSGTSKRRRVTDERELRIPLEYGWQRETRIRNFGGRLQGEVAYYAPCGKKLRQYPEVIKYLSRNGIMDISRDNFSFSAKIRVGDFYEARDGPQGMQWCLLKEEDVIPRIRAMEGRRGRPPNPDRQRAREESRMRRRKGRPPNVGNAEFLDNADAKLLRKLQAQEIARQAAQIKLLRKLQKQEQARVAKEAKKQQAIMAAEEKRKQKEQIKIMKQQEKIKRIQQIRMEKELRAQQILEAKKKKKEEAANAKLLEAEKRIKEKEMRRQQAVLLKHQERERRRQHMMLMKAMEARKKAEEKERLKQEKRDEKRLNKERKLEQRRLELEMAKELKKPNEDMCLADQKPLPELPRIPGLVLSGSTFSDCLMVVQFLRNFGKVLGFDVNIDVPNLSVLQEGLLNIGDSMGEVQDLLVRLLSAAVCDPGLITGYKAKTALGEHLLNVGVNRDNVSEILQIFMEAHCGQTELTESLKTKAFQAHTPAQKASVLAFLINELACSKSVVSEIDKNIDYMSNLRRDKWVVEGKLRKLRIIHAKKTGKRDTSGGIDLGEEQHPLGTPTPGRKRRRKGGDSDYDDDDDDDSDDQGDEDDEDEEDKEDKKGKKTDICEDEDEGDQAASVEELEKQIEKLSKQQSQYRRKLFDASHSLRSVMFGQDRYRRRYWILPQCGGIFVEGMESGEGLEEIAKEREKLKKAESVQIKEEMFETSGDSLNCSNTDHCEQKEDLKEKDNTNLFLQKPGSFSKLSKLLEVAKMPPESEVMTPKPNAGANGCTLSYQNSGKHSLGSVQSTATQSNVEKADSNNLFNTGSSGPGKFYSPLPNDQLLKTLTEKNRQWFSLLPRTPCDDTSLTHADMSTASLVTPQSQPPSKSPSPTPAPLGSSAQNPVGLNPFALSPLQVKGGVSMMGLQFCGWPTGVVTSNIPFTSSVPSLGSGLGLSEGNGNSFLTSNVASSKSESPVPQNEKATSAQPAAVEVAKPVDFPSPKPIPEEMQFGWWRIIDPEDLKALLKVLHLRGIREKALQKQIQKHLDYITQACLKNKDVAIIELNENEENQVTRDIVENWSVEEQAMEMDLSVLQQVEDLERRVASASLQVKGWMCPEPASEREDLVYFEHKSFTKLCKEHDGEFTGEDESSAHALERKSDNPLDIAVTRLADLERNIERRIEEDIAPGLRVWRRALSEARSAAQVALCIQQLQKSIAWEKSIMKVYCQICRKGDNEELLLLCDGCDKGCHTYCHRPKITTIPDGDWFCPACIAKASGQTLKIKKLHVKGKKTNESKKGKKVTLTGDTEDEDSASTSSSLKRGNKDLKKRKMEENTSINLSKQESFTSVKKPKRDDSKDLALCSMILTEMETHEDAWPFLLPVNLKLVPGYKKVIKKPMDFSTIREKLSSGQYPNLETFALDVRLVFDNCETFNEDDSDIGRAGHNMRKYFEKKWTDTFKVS

[6] = target: T2, Inhibitor of nuclear factor kappa-B kinase subunit beta (Homo sapiens) (UniProt O14920); experiment: Selectivity interaction (Kinase panel (KiNativ target engagement assay in Jurkat cells)) EUB0001635a IKBKB; format: cell-based; details: Selectivity number of off-targets 0.0, Selectivity number of targets 233.0, Source Knowledge https://www.sciencedirect.com/science/article/pii/S2451945619300674?via%3Dihub, at 1 µM
T2 sequence (whole entry): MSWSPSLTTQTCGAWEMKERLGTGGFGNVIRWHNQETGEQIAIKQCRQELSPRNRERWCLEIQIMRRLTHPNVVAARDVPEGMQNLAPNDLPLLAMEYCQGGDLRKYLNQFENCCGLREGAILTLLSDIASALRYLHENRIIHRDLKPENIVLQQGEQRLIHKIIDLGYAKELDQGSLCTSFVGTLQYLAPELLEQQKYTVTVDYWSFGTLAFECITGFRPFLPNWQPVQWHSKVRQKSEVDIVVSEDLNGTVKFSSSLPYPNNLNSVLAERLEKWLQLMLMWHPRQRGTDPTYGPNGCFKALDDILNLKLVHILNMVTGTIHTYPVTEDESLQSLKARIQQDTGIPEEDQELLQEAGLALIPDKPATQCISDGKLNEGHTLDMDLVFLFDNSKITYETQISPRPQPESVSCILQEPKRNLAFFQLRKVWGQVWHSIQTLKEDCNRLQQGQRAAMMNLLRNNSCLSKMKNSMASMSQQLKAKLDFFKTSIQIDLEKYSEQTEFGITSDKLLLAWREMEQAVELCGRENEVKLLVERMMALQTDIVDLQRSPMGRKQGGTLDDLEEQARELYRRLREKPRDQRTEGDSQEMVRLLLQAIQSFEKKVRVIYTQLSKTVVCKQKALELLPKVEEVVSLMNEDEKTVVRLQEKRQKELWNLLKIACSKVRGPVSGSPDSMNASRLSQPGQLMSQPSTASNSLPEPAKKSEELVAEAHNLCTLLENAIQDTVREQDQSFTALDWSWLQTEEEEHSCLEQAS

[7] = target: Insulin receptor (Homo sapiens, UniProt P06213); experiment: Selectivity interaction (Millipore kinase profiler) EUB0000124b INSR; details: at 10 µM
[8] = target: Tyrosine-protein kinase SYK (Homo sapiens, UniProt P43405); experiment: Selectivity interaction (Kinase panel (Z-LYTE Assay)) EUB0001632a SYK; details: at 10 µM
[9] = target: Serine/threonine-protein kinase tousled-like 2 (Homo sapiens) (UniProt Q86UE8); experiment: Selectivity interaction (ActivX KiNativ screen (kinase selectivity in THP-1 cell lysates)) EUB0000639a TLK2; format: subcellular; details: lysate, at 0.01 µM
[10] = target: Serine/threonine-protein kinase 38 (Homo sapiens) (UniProt Q15208); experiment: Selectivity interaction (ActivX KiNativ screen (kinase selectivity in THP-1 cell lysates)) EUB0000639a STK38; format: subcellular; details: lysate, at 0.2 µM
[11] = target: Ephrin type-A receptor 4 (Homo sapiens, UniProt P54764); experiment: Selectivity interaction (KinomeScan (DiscoverX)) EUB0000607a EPHA4; details: at 10 µM
[12] = target: T3, Serine/threonine-protein kinase ULK3 (Homo sapiens) (UniProt Q6PHR2); experiment: Selectivity interaction (KinomeScan (DiscoverX)) EUB0000695a ULK3; details: at 100 nM
T3 sequence (whole entry): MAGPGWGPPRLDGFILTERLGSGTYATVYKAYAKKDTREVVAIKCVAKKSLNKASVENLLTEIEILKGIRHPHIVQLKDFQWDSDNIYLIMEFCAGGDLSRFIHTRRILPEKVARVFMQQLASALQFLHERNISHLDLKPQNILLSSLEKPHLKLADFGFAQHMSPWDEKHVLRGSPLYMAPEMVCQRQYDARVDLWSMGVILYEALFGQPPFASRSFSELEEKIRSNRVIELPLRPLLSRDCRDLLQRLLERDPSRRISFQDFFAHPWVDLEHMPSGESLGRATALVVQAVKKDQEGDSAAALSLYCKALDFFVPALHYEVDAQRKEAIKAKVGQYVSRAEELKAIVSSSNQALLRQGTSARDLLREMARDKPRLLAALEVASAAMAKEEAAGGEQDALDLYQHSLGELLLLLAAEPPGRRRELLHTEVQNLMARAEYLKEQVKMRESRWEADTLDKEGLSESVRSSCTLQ

[13] = target: Serine/threonine-protein kinase PLK3 (Homo sapiens, UniProt Q9H4B4); experiment: Selectivity interaction (KinomeScan (DiscoverX)) EUB0000595a PLK3; details: at 10 µM

Question: How did the % of control [1] turn out when `CCC(=O)N1CCN(c2ccc(-n3c(=O)ccc4cnc5ccc(-c6cnc7ccccc7c6)cc5c43)cc2C(F)(F)F)CC1` was run?
Answer: 90%

Question: `C=CC(=O)Nc1cccc(C(=O)Nc2ccc(Nc3cc(-c4[nH]c(SC)nc4C)ccn3)cc2)c1` was tested. Which % of control ([2]; at 1 µM) did it give?
Answer: 85%

Question: What about the % of control ([2]; at 5 µM) of the same molecule?
Answer: 89%

Question: What about the % of control ([3]; at 1 µM) of the same molecule?
Answer: 84%

Question: What about the % of control ([3]; at 5 µM) of the same molecule?
Answer: 66%

Question: For `Nc1cnc(N2CCc3cc(S(=O)(=O)Nc4c(F)cc(Cl)cc4F)cc(N4CCCC4=O)c32)nc1` [TP-020n], which % of control [4] is on record?
Answer: 79%

Question: `CN(C)CCCOc1ccc(-c2cc(NCCCn3cccn3)nc(S(C)(=O)=O)n2)cc1` was tested. Which dTM [5] did it give?
Answer: < 2 K

Question: For `C=CC(=O)Nc1ccc(C(=O)Nc2[nH]nc3c2CN(C(=O)N[C@H](CN(C)C)c2ccccc2)C3(C)C)cc1`, which % of engagement [6] is on record?
Answer: -20.2%

Question: Which % of control [7] does the source give for `CC(=O)Nc1cccc(-n2c(=O)n(C3CC3)c(=O)c3c(Nc4ccc(I)cc4F)n(C)c(=O)c(C)c32)c1` here?
Answer: 129%

Question: `Cn1cc(-n2cnc3c(NCc4nc5cc(Cl)c(Cl)cc5[nH]4)nc(N4CCOCC4)nc32)cn1` was tested. Which % of control [8] did it give?
Answer: 3.71%

Question: For `CC[C@@H]1[C@H](F)C(=O)N[C@@H]1COc1nccc2cc(C(N)=O)c(OC)cc12` [ZIMLOVISERTIB], which % of inhibition [9] is on record?
Answer: 0.7%

Question: And the % of inhibition [10]?
Answer: 22.6%

Question: With `CNC(=O)Nc1ccc(-c2nc(N3CC4CCC(C3)O4)c3cnn(C4CCC5(CC4)OCCO5)c3n2)cc1` as the molecule, how does the % of control [11] read?
Answer: 100%

Question: Which % of control [12] does the source give for `Cc1cc(F)c(C(=O)Nc2cccc(-c3nncn3C(C)C)n2)cc1-n1cnc(C2CC2)c1` here?
Answer: 80%

Question: How did the % of control [13] turn out when `COCC(=O)NC/C=C/c1ccc2ncnc(Nc3ccc(Oc4ccc(C)nc4)c(C)c3)c2c1` [CP-724714] was run?
Answer: 99%
